Results reported in PMC6768028, “Synthesis, SAR and in vitro therapeutic potentials of thiazolidine-2,4-diones” (Chemistry Central Journal, 2018).
≈ marks a conversion by molar mass, not a printed value.

Assays:
Bacillus subtilis = experiment: Antimicrobial activity, tube dilution method (MIC); assay type: cell-based; details: 24 h, read-out: Minimum inhibitory concentration, B. subtilis, tube dilution, 37 ± 1 °C, 24 h
Experimental: (§1) The in vitro antimicrobial activity of synthesized compounds was done by tube dilution method against Gram-positive bacteria: Staphylococcus aureus, Bacillus subtilis, Gram-negative bacteria: Escherichia coli, Klebsiella pneumonia, Salmonella typhi and fungal: Candida albicans and Aspergillus niger strains using cefadroxil and fluconazole as standard. Dilutions of test and standard compounds were prepared in double strength nutrient broth for bacterial strains and Sabouraud dextrose broth for fungal strains.

Escherichia coli = experiment: Antimicrobial activity, tube dilution method (MIC); assay type: cell-based; details: 24 h, read-out: Minimum inhibitory concentration, E. coli, tube dilution, 37 ± 1 °C, 24 h
Experimental: as §1

Klebsiella pneumonia = experiment: Antimicrobial activity, tube dilution method (MIC); assay type: cell-based; details: Klebsiella pneumoniae, 24 h, read-out: Minimum inhibitory concentration, K. pneumonia, tube dilution, 37 ± 1 °C, 24 h
Experimental: as §1

Salmonella typhi = experiment: Antimicrobial activity, tube dilution method (MIC); assay type: cell-based; details: Salmonella enterica, TYPHI, 24 h, read-out: Minimum inhibitory concentration, S. typhi
Experimental: as §1

Staphylococcus aureus = experiment: Antimicrobial activity, tube dilution method (MIC); assay type: cell-based; details: 24 h, read-out: Minimum inhibitory concentration, S. aureus, tube dilution, 37 ± 1 °C, 24 h
Experimental: as §1

Aspergillus niger = experiment: Antifungal activity, tube dilution method (MIC); assay type: cell-based; details: 168 h, read-out: Minimum inhibitory concentration, A. niger, tube dilution, 25 ± 1 °C, 7 days
Experimental: as §1

Candida albicans = experiment: Antifungal activity, tube dilution method (MIC); assay type: cell-based; details: 48 h, read-out: Minimum inhibitory concentration, C. albicans, tube dilution, 37 ± 1 °C, 48 h
Experimental: as §1

[1] = test system: α-amylase enzyme (diastase); experiment: Antidiabetic activity: α-amylase inhibitory activity using diastase, colorimetric method; assay type: biochemical; details: for IC50 (antidiabetic activity, α-amylase): calculated via graph of % inhibition
Experimental: All the synthesized compounds were evaluated against α-amylase inhibitory activity by using diastase based on colorimetric method. 0.25 g of soluble potato starch was dissolved in 50 ml of 20 mM phosphate buffer by heating for 15 min. 1 mg diastase (amylase enzyme) was mixed in 100 ml of 20 mM phosphate buffer (pH 6.9) to obtain the enzyme solution. Different concentrations of all the synthesized derivatives were prepared by dissolving them in DMSO. […] 1 ml of enzyme solution was mixed with 1 ml of each synthesized derivatives and incubated for 10 min at 25 °C. Then 1 ml of this mixture was mixed with 1 ml of soluble potato starch solution in a tube and incubated for 10 min at 25 °C. Then tubes were closed after adding 1 ml of color reagent and placed into water bath for 15 min at 85 °C. The reaction mixture was removed from water bath after 15 min. After cooling, the reaction mixture was diluted with 9 ml of distilled water and the absorbance was taken at 540 nm in UV spectrophotometer. Blank solution was prepared by replacing the enzyme solution with buffer solution and absorbance was taken. Measurement of control was performed in identical manner by replacing the synthesized derivatives in 1 ml of DMSO.
Percentage inhibition of α-amylase enzyme was calculated by using following formula:1 %Inhibition=ABlank-ASample/ABlank×100

[2] = Antioxidant activity: free radical scavenging method by DPPH assay; details: for % inhibition (DPPH), 25 μg/ml / % inhibition (DPPH), 50 μg/ml / % inhibition (DPPH), 75 μg/ml / % inhibition (DPPH), 100 μg/ml: 30 min, 517 nm; for IC50 (antioxidant activity, DPPH): calculated via graph of % inhibition
Experimental: The antioxidant activity of the newly synthesized compounds were evaluated spectrophotometrically using free radical scavenging method by DPPH (2,2-diphenyl-1-picrylhydrazyl) assay. The DPPH is a stable free radical with maximal absorption at 517 nm and is reduced to a corresponding hydrazine when it reacting with hydrogen donors. […] DPPH solution (3 μg/ml) was prepared in methanol and DPPH (in 1:1) solution was used for blank reference. Four dilutions of different concentrations (25, 50, 75 and 100 μg/ml) of each synthesized compound and standard (ascorbic acid) were prepared in the methanol and 1 ml of each concentration was added to 1 ml of DPPH solution. The solution mixture was shaken vigorously and kept in dark place for 30 min at room temperature and absorbance was measured by UV at 517 nm. Percentage inhibition of Free radical DPPH was calculated as follows:1 %Inhibition=ABlank-ASample/ABlank×100 where, ABlank: absorbance of the blank reaction, ASample: absorbance of the test compound.

Structure (SMILES) | MIC (Bacillus subtilis) [mM] | MIC (Escherichia coli) [mM] | MIC (Klebsiella pneumonia) [mM] | MIC (Salmonella typhi) [mM] | MIC (Staphylococcus aureus) [mM] | MIC (Aspergillus niger) [mM] | MIC (Candida albicans) [mM] | % inhibition (α-amylase), 25 μg/ml [1] [%] | % inhibition (α-amylase), 50 μg/ml [1] [%] | % inhibition (α-amylase), 75 μg/ml [1] [%] | % inhibition (α-amylase), 100 μg/ml [1] [%] | IC50 (antidiabetic activity, α-amylase) [1] [µg/mL] | % inhibition (DPPH), 25 μg/ml [2] [%] | % inhibition (DPPH), 50 μg/ml [2] [%] | % inhibition (DPPH), 75 μg/ml [2] [%] | % inhibition (DPPH), 100 μg/ml [2] [%] | IC50 (antioxidant activity, DPPH) [2] [µg/mL] | melting point [°C]
CN(C)c1ccc(C=C2SC(=O)NC2=O)cc1 [Compound 6, 5-(4-(Dimethylamino)benzylidene)thiazolidine-2,4-dione] | 5 (≈ 1240 µg/mL) | 4.99 (≈ 1240 µg/mL) | 10.1 (≈ 2500 µg/mL) | 5 (≈ 1240 µg/mL) | 5 (≈ 1240 µg/mL) | 10.1 (≈ 2500 µg/mL) | 20.1 (≈ 4990 µg/mL) | 33.56 | 49.45 | 50.78 | 97.15 | 37.35 (≈ 150 µM) | 19.54 | 38.93 | 62.65 | 75.82 | 48.13 (≈ 194 µM) | 147 to 150
CCN(CC)c1ccc(/C=C2/SC(=O)NC2=O)cc1 [Compound 8] | 4.5 (≈ 1240 µg/mL) | 5 (≈ 1380 µg/mL) | 4.5 (≈ 1240 µg/mL) | 4.5 (≈ 1240 µg/mL) | 4.5 (≈ 1240 µg/mL) | 4.5 (≈ 1240 µg/mL) | 4.5 (≈ 1240 µg/mL) | 20.79 | 39.54 | 40.89 | 93.17 | 56.89 (≈ 206 µM) | 26.93 | 33.78 | 62.23 | 65.78 | 31.15 (≈ 113 µM) | 158 to 160
